In patent US9096539B2, “Substituted 4,5-dihydro-2H-benzo[e]indazole-9-carboxylates for the treatment of diabetes and related disorders” (Council of Scientific & Industrial Research, priority 2012, dated 2015):
Read-outs that look alike come from different tables or passages of the source.

Assays:
[1] = molecular target: T1, human recombinant PTP1B enzyme (Homo sapiens, UniProt P18031); assay: Protein tyrosine phosphatase-1B assay (colorimetric kit BML-AK 822); type: biochemical; conditions: read-out: % Inhibition (PTP-1B)
T1 construct: purchased Enzo Life Sciences, USA BML-AK 822
T1 sequence (P18031 1-322 limits assumed): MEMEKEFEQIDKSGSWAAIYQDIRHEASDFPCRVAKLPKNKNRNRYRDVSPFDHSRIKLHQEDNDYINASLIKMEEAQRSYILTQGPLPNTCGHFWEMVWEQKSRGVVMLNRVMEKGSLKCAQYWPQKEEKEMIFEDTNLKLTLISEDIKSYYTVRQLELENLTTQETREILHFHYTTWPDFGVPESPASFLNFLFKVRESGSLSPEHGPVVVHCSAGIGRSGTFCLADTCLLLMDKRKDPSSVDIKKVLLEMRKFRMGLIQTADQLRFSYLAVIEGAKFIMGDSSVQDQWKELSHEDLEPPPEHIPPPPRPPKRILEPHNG
Method: Assay was done according to the Kit manufacturers protocol, in brief the reaction was carried out in 96 well flat bottomed microtiter plate by the addition of assay buffer, solution of test compounds and diluted PTP1B enzyme. Enzyme reaction was initiated by addition of 50 μl of warmed 2× substrate then incubated the plate at 30° C. for 30 min. After incubation for 30 min. Reaction was terminated by addition of 25 μl of biomol red reagent and mixed thoroughly by repeated pipetting. […] Volumes and dilution of other component were accordingly as instructed in the manual provided in the kit. PTP1B phosphatase acting on the phosphopeptide substrate and release phosphate. The detection of free phosphate released is based on classic Malachite green assay. After adding biomol red to reaction wells after 30 minutes of incubation as described earlier the plate was incubated for another 20 min to develop the colour. Absorbance was recorded at 620 nm. on a microplate reader.

[2] = Table 5, evaluated at 10 μM concentration

Row | SMILES | inhibition at 10 µM [1, 2] [%] | melting point [°C] | inhibition at 10 µM [1] [%]
1 | COC(=O)c1c(S(C)(=O)=O)cc(-c2ccc(F)cc2)c2c1-c1cn(-c3ccccc3)nc1CC2 [compound 10, methyl 6-(4-fluorophenyl)-8-(methylsulfonyl)-2-phenyl-4,5-dihydro-2H-benzo[e]indazole-9-carboxylate] | 1.52 | 245 to 247 | 
2 | COC(=O)c1c(S(C)(=O)=O)cc(-c2cccc3ccccc23)c2c1-c1cn(-c3ccccc3)nc1CC2 [compound 11, methyl 8-(methylsulfonyl)-6-(naphthalen-1-yl)-2-phenyl-4,5-dihydro-2H-benzo[e]indazole-9-carboxylate] | 18.8 | 204 to 206 | 
3 | COC(=O)c1c(SC)cc(-c2ccc(Br)cc2)c2c1-c1cn(-c3ccccc3)nc1CC2 [compound 1, methyl 6-(4-bromophenyl)-8-(methylthio)-2-phenyl-4,5-dihydro-2H-benzo[e]indazole-9-carboxylate] |  | 164 to 166 | 9.2
4 | COC(=O)c1c(SC)cc(-c2ccc(Cl)cc2)c2c1-c1cn(-c3ccccc3)nc1CC2 [compound 2, methyl 6-(4-chlorophenyl)-8-(methylthio)-2-phenyl-4,5-dihydro-2H-benzo[e]indazole-9-carboxylate] | 8 | 159 to 162 | 
5 | COC(=O)c1c(SC)cc(-c2ccccc2)c2c1-c1cn(-c3ccccc3)nc1CC2 [compound 4, methyl 8-(methylthio)-2,6-diphenyl-4,5-dihydro-2H-benzo[e]indazole-9-carboxylate] | 16.4 | 173 to 175 | 
